Reference: PubChem BioAssay AID330 (DTP/NCI, 2004)
“And” between values parts separate entries of the source, which are not always exact repeats. Equal entries are not always repeated. Inconclusive results and toxic doses are left out. Rule for the calls: active = survival T/C of 150% or more; inactive = T/C below 125% in these data.

Tested on: P388 leukemia ip, CD2F1 mice, survival T/C
Experiment: NCI In Vivo Anticancer Drug Screen. Data for tumor model P388 Leukemia (intraperitoneal) in CD2F1 (CDF1) mice
Settings: endpoint: median survival time, higher = longer survival
Method in brief: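 Mice carrying the transplanted tumor received test compound or vehicle. Survival was recorded in each group, and the value is the treated-group measurement divided by that of the vehicle-treated control group.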

[1] = dose: 100.0 mg/kg/injection, schedule: Q04DX002 (ip), vehicle: saline with Tween-80
[2] = dose: 200.0 mg/kg/injection, schedule: Q04DX002 (ip), vehicle: saline with Tween-80
[3] = dose: 400.0 mg/kg/injection, schedule: Q04DX002 (ip), vehicle: saline with Tween-80
[4] = dose: 50.0 mg/kg/injection, schedule: Q01DX009 (ip), vehicle: saline with Tween-80
[5] = dose: 100.0 mg/kg/injection, schedule: Q01DX009 (ip), vehicle: saline with Tween-80
[6] = dose: 50.0 mg/kg/injection, schedule: Q01DX005 (ip), vehicle: Klucel (hydroxypropylcellulose) (HPC)
[7] = dose: 100.0 mg/kg/injection, schedule: Q01DX005 (ip), vehicle: Klucel (hydroxypropylcellulose) (HPC)
[8] = dose: 200.0 mg/kg/injection, schedule: Q01DX005 (ip), vehicle: Klucel (hydroxypropylcellulose) (HPC)
[9] = dose: 50.0 mg/kg/injection, schedule: Q01DX005 (ip), vehicle: saline with Tween-80
[10] = dose: 100.0 mg/kg/injection, schedule: Q01DX005 (ip), vehicle: saline with Tween-80
[11] = dose: 200.0 mg/kg/injection, schedule: Q01DX005 (ip), vehicle: saline with Tween-80
[12] = dose: 25.0 mg/kg/injection, schedule: Q01DX009 (ip), vehicle: saline with Tween-80
[13] = dose: 200.0 mg/kg/injection, schedule: Q01DX009 (ip), vehicle: saline with Tween-80
[14] = dose: 6.25 mg/kg/injection, schedule: Q01DX009 (ip), vehicle: saline with Tween-80
[15] = dose: 12.5 mg/kg/injection, schedule: Q01DX009 (ip), vehicle: saline with Tween-80

Measured: T/C

CN(C)CC(CN(C)C)C(=O)c1ccc(Oc2ccccc2)cc1
inactive: dose: 7.5 mg/kg/injection, schedule: Q01DX005 (ip), vehicle: saline 123 % of control | dose: 15.0 mg/kg/injection, schedule: Q01DX005 (ip), vehicle: saline 120 % of control

Cc1ccc(S(=O)(=O)OCC2(COS(=O)(=O)c3ccc(C)cc3)COC2)cc1
inactive: dose: 50.0 mg/kg/injection, schedule: Q01DX001 (ip), vehicle: Klucel (hydroxypropylcellulose) (HPC) 107 % of control | dose: 100.0 mg/kg/injection, schedule: Q01DX001 (ip), vehicle: Klucel (hydroxypropylcellulose) (HPC) 103 % of control | dose: 200.0 mg/kg/injection, schedule: Q01DX001 (ip), vehicle: Klucel (hydroxypropylcellulose) (HPC) 100 % of control

CCn1ncc2c1nc(-c1ccccc1)c[n+]2[O-]
inactive: dose: 60.0 mg/kg/injection, schedule: Q01DX005 (ip), vehicle: Klucel (hydroxypropylcellulose) (HPC) 92 % of control | dose: 120.0 mg/kg/injection, schedule: Q01DX005 (ip), vehicle: Klucel (hydroxypropylcellulose) (HPC) 100 % of control | dose: 240.0 mg/kg/injection, schedule: Q01DX005 (ip), vehicle: Klucel (hydroxypropylcellulose) (HPC) 101 % of control

CNCC1CCCO1 (centres undefined)
inactive: dose: 25.0 mg/kg/injection, schedule: Q04DX003 (ip), vehicle: saline 100 % of control | dose: 50.0 mg/kg/injection, schedule: Q04DX003 (ip), vehicle: saline 100 % of control | dose: 100.0 mg/kg/injection, schedule: Q04DX003 (ip), vehicle: saline 100 % of control | dose: 200.0 mg/kg/injection, schedule: Q04DX003 (ip), vehicle: saline 99 % of control

CCOC(=O)C(=CNc1cccc2cccnc12)C(=O)OCC
inactive: [1] 97 % of control | [2] 99 % of control | [3] 99 % of control

O=C1C(=O)c2ccccc2C(O)=C1CC=C(Br)Br
inactive: [4] 100 % of control | [5] 100 % of control | dose: 100.0 mg/kg/injection, schedule: Q04DX003 (ip), vehicle: saline with Tween-80 100 % of control | dose: 200.0 mg/kg/injection, schedule: Q04DX003 (ip), vehicle: saline with Tween-80 110 % of control

O=C(NCCCl)Nc1[nH]c(=O)ncc1Br
inactive: dose: 60.0 mg/kg/injection, schedule: Q01DX005 (ip), vehicle: saline with Tween-80 104 % of control | dose: 120.0 mg/kg/injection, schedule: Q01DX005 (ip), vehicle: saline with Tween-80 102 % of control | dose: 240.0 mg/kg/injection, schedule: Q01DX005 (ip), vehicle: saline with Tween-80 112 % of control

COc1cc2c(c3c1c(=O)c1cc(F)ccc1n3C)C=CC(C)(C)O2
inactive: [6] 103 % of control | [7] 100 % of control and 104 % of control | [8] 105 % of control and 98 % of control

COc1cc2c(cc1C(C)c1ccc(Br)cc1)OCO2 (centres undefined)
inactive: [9] 96 % of control | [10] 103 % of control | [11] 100 % of control

CCOc1nc2ccc(NC(C)CN3CCN(CCc4ccccc4)CC3)cc2s1 (centres undefined)
inactive: [6] 109 % of control | [7] 118 % of control

Cc1cc2nc(CN(CCN(Cc3nc4cc(C)c(C)cc4[nH]3)Cc3nc4cc(C)c(C)cc4[nH]3)Cc3nc4cc(C)c(C)cc4[nH]3)[nH]c2cc1C
inactive: dose: 12.5 mg/kg/injection, schedule: Q01DX001 (ip), vehicle: saline with Tween-80 106 % of control | dose: 25.0 mg/kg/injection, schedule: Q01DX001 (ip), vehicle: saline with Tween-80 116 % of control | dose: 50.0 mg/kg/injection, schedule: Q01DX001 (ip), vehicle: saline with Tween-80 116 % of control

O=C1N(CCO)C2=CCCCC23c2[nH]c4ccccc4c2CCN13 (centres undefined)
inactive: [9] 104 % of control | [10] 102 % of control | [11] 102 % of control

O=C(O)C(=O)O.[Co].[NH-]CC[NH-].[NH-]CC[NH-]
inactive: dose: 12.5 mg/kg/injection, schedule: Q04DX002 (ip), vehicle: saline with Tween-80 100 % of control | dose: 25.0 mg/kg/injection, schedule: Q04DX002 (ip), vehicle: saline with Tween-80 100 % of control

CC1(C)CN2C(c3ccccc3)=NN(c3ccccc3)C2(C)C1 (centres undefined)
inactive: dose: 100.0 mg/kg/injection, schedule: Q01DX001 (ip), vehicle: saline with Tween-80 98 % of control | dose: 200.0 mg/kg/injection, schedule: Q01DX001 (ip), vehicle: saline with Tween-80 99 % of control | dose: 400.0 mg/kg/injection, schedule: Q01DX001 (ip), vehicle: saline with Tween-80 100 % of control

OO.OO.[Cr+3].[NH-]CC[N-]CC[NH-]
inactive: [4] 94 % of control | [5] 99 % of control

O=C(NC(O)C(Cl)(Cl)Cl)C(Cl)(Cl)Cl (centres undefined)
inactive: [9] 100 % of control | [10] 95 % of control | [11] 107 % of control

CCCCCCCCCCCCCC#CC(=O)OC
inactive: dose: 50.0 mg/kg/injection, schedule: Q01DX009 (ip), vehicle: saline 104 % of control | dose: 100.0 mg/kg/injection, schedule: Q01DX009 (ip), vehicle: saline 106 % of control | dose: 200.0 mg/kg/injection, schedule: Q01DX009 (ip), vehicle: saline 106 % of control

C=CS(=O)(=O)c1ccc(Nc2cc(S(=O)(=O)O)c(N)c3c2C(=O)c2ccccc2C3=O)cc1
inactive: [12] 116 % of control and 120 % of control | [4] 104 % of control and 115 % of control and 123 % of control | [5] 107 % of control and 120 % of control and 123 % of control | [13] 105 % of control and 118 % of control

N=C(N)SCN1C(=O)c2ccccc2C1=O
inactive: [14] 114 % of control | [15] 107 % of control | [12] 123 % of control | [4] 122 % of control

CCc1nc(N)nc(N)c1-c1ccc(N(C)Cc2ccccc2)c(N)c1
inactive: [6] 96 % of control | [7] 93 % of control | [8] 103 % of control

OC(CCCCl)CC(O)(C(F)(F)F)C(F)(F)F (centres undefined)
inactive: [4] 110 % of control | [5] 110 % of control | [13] 110 % of control

Cc1ccc(S(=O)(=O)N(O)c2ccc(C)cc2C)cc1
inactive: [9] 112 % of control | [10] 107 % of control

CC1(C)C=C(NC(=O)N2CC2)C(C)(C)N1O
inactive: [14] 100 % of control | [15] 103 % of control | [12] 103 % of control | [4] 117 % of control

CC1=C(C(=O)Nc2ccccc2)C(c2ccc(C)cc2)C(C(=O)Nc2ccccc2)=C(C)N1
inactive: [1] 107 % of control | [2] 106 % of control | [3] 101 % of control

C=C(C)[C@H]1C[C@@H]2O[C@]2(C)[C@@H](O)C1
inactive: dose: 100.0 mg/kg/injection, schedule: Q04DX002 (ip), vehicle: saline 94 % of control | dose: 200.0 mg/kg/injection, schedule: Q04DX002 (ip), vehicle: saline 102 % of control | dose: 400.0 mg/kg/injection, schedule: Q04DX002 (ip), vehicle: saline 96 % of control

Cc1cc(=O)oc2cc3oc4c(c3cc12)CCCC4
inactive: [6] 97 % of control | [7] 92 % of control | [8] 88 % of control

COC1CCC2C(C1)C(C1CCCCC1)C1CCCCC1C2C1CCCCC1 (centres undefined)
inactive: [9] 96 % of control | [10] 93 % of control | [11] 95 % of control

Nc1ccccc1C(=O)N/N=C/c1cccnc1
inactive: [6] 100 % of control | [7] 98 % of control | [8] 98 % of control

CCc1c2c(cc3c1[nH]c1ccccc13)C(=O)OC2=O
inactive: [6] 95 % of control | [7] 86 % of control | [8] 98 % of control

N#C/C(C(=N)c1ccccc1)=C1\SS/C(=C(\C#N)C(=N)c2ccccc2)S1
inactive: dose: 1.56 mg/kg/injection, schedule: Q01DX009 (ip), vehicle: saline with Tween-80 99 % of control and 90 % of control | dose: 3.13 mg/kg/injection, schedule: Q01DX009 (ip), vehicle: saline with Tween-80 99 % of control and 103 % of control | [14] 104 % of control and 86 % of control and 90 % of control | [15] 86 % of control and 97 % of control | [12] 86 % of control | [4] 105 % of control | [5] 107 % of control | [13] 105 % of control

O=C1C2C(C(=O)N1c1ccc(OCc3ccccc3)cc1)C1c3ccccc3C2C2CCCCN21 (centres undefined)
inactive: dose: 3.13 mg/kg/injection, schedule: Q01DX009 (ip), vehicle: water 100 % of control | dose: 6.25 mg/kg/injection, schedule: Q01DX009 (ip), vehicle: water 105 % of control | dose: 12.5 mg/kg/injection, schedule: Q01DX009 (ip), vehicle: water 109 % of control | dose: 25.0 mg/kg/injection, schedule: Q01DX009 (ip), vehicle: water 111 % of control
